29 molecules from patent US20060276464A1, “Diarylsulfone sulfonamides and use thereof” (Wyeth, priority 2005, published 2006) can be followed below.

The target in the first series is T1, SFRP-1 (Homo sapiens, UniProt Q8N474).
T1 sequence (Q8N474 32-314): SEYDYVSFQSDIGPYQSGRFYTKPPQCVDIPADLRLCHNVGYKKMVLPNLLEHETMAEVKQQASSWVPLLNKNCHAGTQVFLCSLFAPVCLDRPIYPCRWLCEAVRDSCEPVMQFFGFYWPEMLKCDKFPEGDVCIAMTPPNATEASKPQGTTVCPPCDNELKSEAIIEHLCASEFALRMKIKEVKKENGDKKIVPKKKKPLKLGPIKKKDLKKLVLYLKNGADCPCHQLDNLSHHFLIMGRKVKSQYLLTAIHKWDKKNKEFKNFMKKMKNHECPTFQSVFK
Briefly: Fluorescence polarization binding assay (competitive displacement of a probe compound from SFRP-1).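 Also: test compound competes with a fluorescent probe held by SFRP-1, seen as a drop in probe anisotropy after incubation in darkness, with anisotropy as function of rising compound dose.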 The following applies: fluorescence anisotropy, 45 nM SFRP-1, 20 nM probe. On the technique in general: Polarisation of emitted light reports the rotation of a fluorescent probe.
By IC50 is commonly meant the concentration needed to halve the response being measured. Lower therefore signals inhibition by little substance. In turn, `CC(C)c1ccc(S(=O)(=O)c2ccc(N3C[C@@H](C)NC[C@@H]3C)cc2)cc1S(=O)(=O)NC1CCOCC1` (relative stereo) [Example 627, 5-({4-trans-2,5-dimethylpiperazin-1-ylphenyl}sulfonyl)-2-isopropyl-N-(tetrahydro-2H-pyran-4-yl)benzenesulfonamide] returned a concentration for half-maximal inhibition (IC50) of 5 µM.
As for `C[C@@H](NS(=O)(=O)c1cc(S(=O)(=O)c2ccccc2)ccc1Cl)[C@H](O)c1ccccc1` (relative stereo) [Example 676, 2-chloro-N-[(1R*,2R*)-2-hydroxy-1-methyl-2-phenylethyl]-5-(phenylsulfonyl)benzenesulfonamide], the half-maximal inhibitory concentration (IC50) was 9 µM.
For `CC(C)C(CO)NS(=O)(=O)c1cc(S(=O)(=O)c2ccccc2)ccc1C(F)(F)F` (stereo not drawn) [Example 769, N-[1-(hydroxymethyl)-2-methylpropyl]-5-(phenylsulfonyl)-2-(trifluoromethyl)benzenesulfonamide], the IC50 amounted to 13 µM.
As for `CN(CCCNS(=O)(=O)c1cc(S(=O)(=O)c2ccccc2)ccc1C(F)(F)F)C(=O)N1CCN(C(=O)OC(C)(C)C)CC1` [Example 974, tert-butyl 4-({methyl[3-({[5-(phenylsulfonyl)-2-(trifluoromethyl)phenyl]sulfonyl}amino)propyl]amino}carbonyl)piperazine-1-carboxylate], the IC50 was found to be 4 µM.
In turn, `O=C(O)c1cccc(-c2ccc(CNS(=O)(=O)c3cc(S(=O)(=O)c4ccccc4)ccc3C(F)(F)F)cc2)c1` [Example 976, 4′-[({[5-(phenylsulfonyl)-2-(trifluoromethyl)phenyl]sulfonyl}amino)methyl]biphenyl-3-carboxylic acid] had an IC50 of 6 µM.
`CN(CCNS(=O)(=O)c1cc(S(=O)(=O)c2ccccc2)ccc1C(F)(F)F)CC(=O)O` [Example 981, N-methyl-N-[2-({[5-(phenylsulfonyl)-2-(trifluoromethyl)phenyl]sulfonyl}amino)ethyl]glycine] registered a half-maximal inhibitory concentration (IC50) of 13 µM.
Same read-out and setting: the same measure for `CN(CCNS(=O)(=O)c1cc(S(=O)(=O)c2ccccc2)ccc1C(F)(F)F)CCC(=O)O` [Example 982, N-methyl-N-[2-({[5-(phenylsulfonyl)-2-(trifluoromethyl)phenyl]sulfonyl}amino)ethyl]-β-alanine]: 8 µM.
Regarding `N#Cc1cccc(N2CCC(NS(=O)(=O)c3cc(S(=O)(=O)c4ccccc4)ccc3C(F)(F)F)CC2)c1` [Example 986, N-[1-(3-cyanophenyl)piperidin-4-yl]-5-(phenylsulfonyl)-2-(trifluoromethyl)benzenesulfonamide], the IC50 was 0.8 µM.
Same read-out and setting: to `CN(CCNS(=O)(=O)c1cc(S(=O)(=O)c2ccccc2)ccc1C(F)(F)F)C(=O)N(C)C1CCN(C(=O)OC(C)(C)C)CC1` [Example 989, tert-butyl 4-[methyl({methyl[2-({[5-(phenylsulfonyl)-2-(trifluoromethyl)phenyl]sulfonyl}amino)ethyl]amino}carbonyl)amino]piperidine-1-carboxylate] belongs 3 µM; to `O=S(=O)(NCc1cccc(Br)c1)c1cc(S(=O)(=O)c2ccccc2)ccc1C(F)(F)F` [Example 994, N-(3-bromobenzyl)-5-(phenylsulfonyl)-2-(trifluoromethyl)benzenesulfonamide], 2.3 µM.
The molecule `CN(C(=O)NCCNS(=O)(=O)c1cc(S(=O)(=O)c2ccccc2)ccc1C(F)(F)F)C1CCN(C(=O)OC(C)(C)C)CC1` [Example 1045, tert-butyl 4-[methyl({[2-({[5-(phenylsulfonyl)-2-(trifluoromethyl)phenyl]sulfonyl}amino)ethyl]amino}carbonyl)amino]piperidine-1-carboxylate] displayed an IC50 of 4 µM.

The next series deals with T1, SFRP-1. In words: Cell-based assay for in vitro measurement of SFRP-1/SARP2 antagonist activity (U2OS cells co-transfected with 16x TCF-tk-Luciferase reporter, Wnt and hSFRP-1).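 Also: U2OS cells co-transfected with a TCF-tk luciferase reporter, a Wnt vector, hSFRP-1 or empty vector and CMV-βgal, luciferase luminescence read in cell lysates alongside βgal activity.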
Conditions: not given
For orientation: A reporter such as luciferase makes a cellular process visible.
As a reminder, the EC50 is the midpoint of the concentration-response curve. For `C[C@@H](NS(=O)(=O)c1cc(S(=O)(=O)c2ccccc2)ccc1Cl)[C@H](O)c1ccccc1` (relative stereo) [Example 676, 2-chloro-N-[(1R*,2R*)-2-hydroxy-1-methyl-2-phenylethyl]-5-(phenylsulfonyl)benzenesulfonamide], the midpoint of the response, the EC50, lay at 8.9 µM.

Still in this series, the particulars now being: Conc 15 μM; single dose; luciferase reporter, fold induction over SFRP-1 control; cells with SFRP-1.
`CC(C)c1ccc(S(=O)(=O)c2ccc(N3C[C@@H](C)NC[C@@H]3C)cc2)cc1S(=O)(=O)NC1CCOCC1` (relative stereo) [Example 627, 5-({4-trans-2,5-dimethylpiperazin-1-ylphenyl}sulfonyl)-2-isopropyl-N-(tetrahydro-2H-pyran-4-yl)benzenesulfonamide]: the “Fold Induction with SFRP-1” value came out at 3.4 fold.

The same series, now with this note: Conc 15 μM; single dose; luciferase reporter; cells without SFRP-1 (specificity control).
As to `CC(C)c1ccc(S(=O)(=O)c2ccc(N3C[C@@H](C)NC[C@@H]3C)cc2)cc1S(=O)(=O)NC1CCOCC1` (relative stereo) [Example 627, 5-({4-trans-2,5-dimethylpiperazin-1-ylphenyl}sulfonyl)-2-isopropyl-N-(tetrahydro-2H-pyran-4-yl)benzenesulfonamide], the “Fold Induction without SFRP-1” value is reported as 1.1 fold.

The same series, now with this note: U2OS, read-out: Fold Induction with SFRP-1, U2OS cells, single dose 10 μM, luciferase reporter, fold induction over SFRP-1 control.
`C[C@@H](NS(=O)(=O)c1cc(S(=O)(=O)c2ccccc2)ccc1Cl)[C@H](O)c1ccccc1` (relative stereo) [Example 676, 2-chloro-N-[(1R*,2R*)-2-hydroxy-1-methyl-2-phenylethyl]-5-(phenylsulfonyl)benzenesulfonamide]: the fold induction at 10 µM stood at 2.6.
Same read-out and setting: the same measure for `Cc1cc(C)c(S(=O)(=O)c2ccccc2)cc1S(=O)(=O)NCC(O)c1cccnc1` (stereo not drawn) [Example 737, N-(2-hydroxy-2-pyridin-3-ylethyl)-2,4-dimethyl-5-(phenylsulfonyl)benzenesulfonamide]: 2.4; for `CC(C)(C)c1ccc(S(=O)(=O)N2CCC(NS(=O)(=O)c3cc(S(=O)(=O)c4ccccc4)ccc3C(F)(F)F)CC2)cc1` [Example 748, N-{1-[(4-tert-butylphenyl)sulfonyl]piperidin-4-yl}-5-(phenylsulfonyl)-2-(trifluoromethyl)benzenesulfonamide]: 2.8.
Take `Cc1ccc(S(=O)(=O)c2ccc(F)cc2)cc1S(=O)(=O)NCC(O)c1ccccn1` (stereo not drawn) [Example 756, 5-[(4-fluorophenyl)sulfonyl]-N-(2-hydroxy-2-pyridin-2-ylethyl)-2-methylbenzenesulfonamide]: the fold induction at 10 µM is 1.3.
`Cc1ccc(C(=O)NCCNS(=O)(=O)c2cc(S(=O)(=O)c3ccccc3)ccc2C(F)(F)F)cc1` [Example 775, 4-Methyl-N-[2-({[5-(phenylsulfonyl)-2-(trifluoromethyl)phenyl]sulfonyl}amino)ethyl]benzamide]: the fold induction at 10 µM is 1.3.
On the same count and under the same terms, to `CC(C)(C)c1ccc(C(=O)NCCNS(=O)(=O)c2cc(S(=O)(=O)c3ccccc3)ccc2C(F)(F)F)cc1` [Example 776, 4-tert-Butyl-N-[2-({[5-(phenylsulfonyl)-2-(trifluoromethyl)phenyl]sulfonyl}amino)ethyl]benzamide] belongs 0.9; to `O=C(NCCNS(=O)(=O)c1cc(S(=O)(=O)c2ccccc2)ccc1C(F)(F)F)c1ccc(F)cc1` [Example 777, 4-Fluoro-N-[2-({[5-(phenylsulfonyl)-2-(trifluoromethyl)phenyl]sulfonyl}amino)ethyl]benzamide], 1.1; to `O=C(NCCNS(=O)(=O)c1cc(S(=O)(=O)c2ccccc2)ccc1C(F)(F)F)c1ccc(Cl)cc1` [Example 778, 4-Chloro-N-[2-({[5-(phenylsulfonyl)-2-(trifluoromethyl)phenyl]sulfonyl}amino)ethyl]benzamide], 1.2.
Consider `O=C(NCCNS(=O)(=O)c1cc(S(=O)(=O)c2ccccc2)ccc1C(F)(F)F)c1ccc(Br)cc1` [Example 779, 4-Bromo-N-[2-({[5-(phenylsulfonyl)-2-(trifluoromethyl)phenyl]sulfonyl}amino)ethyl]benzamide], for which the fold induction at 10 µM worked out at 1.
As for `COc1ccc(C(=O)NCCNS(=O)(=O)c2cc(S(=O)(=O)c3ccccc3)ccc2C(F)(F)F)cc1` [Example 780, 4-Methoxy-N-[2-({[5-(phenylsulfonyl)-2-(trifluoromethyl)phenyl]sulfonyl}amino)ethyl]benzamide], the fold induction at 10 µM came out at 1.7.
On to `O=C(NCCNS(=O)(=O)c1cc(S(=O)(=O)c2ccccc2)ccc1C(F)(F)F)c1ccc(C(F)(F)F)cc1` [Example 781, N-[2-({[5-(Phenylsulfonyl)-2-(trifluoromethyl)phenyl]sulfonyl}amino)ethyl]-4-(trifluoromethyl)benzamide], for which the fold induction at 10 µM was 1.2.
On to `O=C(NCCNS(=O)(=O)c1cc(S(=O)(=O)c2ccccc2)ccc1C(F)(F)F)c1ccc(OC(F)(F)F)cc1` [Example 782, N-[2-({[5-(Phenylsulfonyl)-2-(trifluoromethyl)phenyl]sulfonyl}amino)ethyl]-4-(trifluoromethoxy)benzamide], for which the fold induction at 10 µM was found to be 1.2.
`Cc1ccc(S(=O)(=O)c2ccc(F)cc2)cc1S(=O)(=O)NC1CCN(C(=O)OC(C)(C)C)CC1` [Example 789, tert-butyl 4-[({5-[(4-fluorophenyl)sulfonyl]-2-methylphenyl}sulfonyl)amino]piperidine-1-carboxylate]: the fold induction at 10 µM is 1.5.
`CC(C)(C)OC(=O)N1CCCC1CCNS(=O)(=O)c1cc(S(=O)(=O)c2ccccc2)ccc1C(F)(F)F` (stereo not drawn) [Example 908, tert-butyl 2-[2-({[5-(phenylsulfonyl)-2-(trifluoromethyl)phenyl]sulfonyl}amino)ethyl]pyrrolidine-1-carboxylate]: the fold induction at 10 µM worked out at 1.1.
Regarding `Cc1cc(S(=O)(=O)c2ccccc2)cc(S(=O)(=O)NC2CCN(C(=O)OC(C)(C)C)CC2)c1C` [Example 910, tert-butyl 4-({[2,3-dimethyl-5-(phenylsulfonyl)phenyl]sulfonyl}amino)piperidine-1-carboxylate], the fold induction at 10 µM was found to be 1.2.
With `Cc1cc(S(=O)(=O)c2ccccc2)cc(S(=O)(=O)NC2CCNCC2)c1C` [Example 922, 2,3-dimethyl-5-(phenylsulfonyl)-N-piperidin-4-ylbenzenesulfonamide], the fold induction at 10 µM turned out to be 1.1.
As to `COC(=O)c1ccc(CNS(=O)(=O)c2cc(S(=O)(=O)c3ccccc3)ccc2C(C)C)cc1` [Example 951, methyl 4-[({[2-isopropyl-5-(phenylsulfonyl)phenyl]sulfonyl}amino)methyl]benzoate], the fold induction at 10 µM came to 1.8.
For the molecule `O=S(=O)(NCCc1ccc(Br)cc1)c1cc(S(=O)(=O)c2ccccc2)ccc1C(F)(F)F` [Example 960, N-[2-(4-bromophenyl)ethyl]-5-(phenylsulfonyl)-2-(trifluoromethyl)benzenesulfonamide], the fold induction at 10 µM came out at 1.4.
Take `O=S(=O)(NCc1ccc(Br)cc1)c1cc(S(=O)(=O)c2ccccc2)ccc1C(F)(F)F` [Example 964, N-(4-bromobenzyl)-5-(phenylsulfonyl)-2-(trifluoromethyl)benzenesulfonamide]: the fold induction at 10 µM was 1.2.
